Laboratory results published in ChEMBL document CHEMBL3616450, “Synthesis of oxygenated oleanolic and ursolic acid derivatives with anti-inflammatory properties” (Bioorg Med Chem Lett, 2015).
Calls of active or inactive are those of the source. No cut-off for these calls is given here.

Experiments:
Format in all cases: functional, organism-based
Mus musculus [1] = experiment: Antiinflammatory activity in […] mouse assessed as inhibition of TPA-induced IL-1beta mRNA expression in epidermis at 2 umol administered topically 30 mins prior to TPA challenge for twice weekly over 2 weeks measured 6 hrs post last TPA challenge by qRT-PCR analysis
Mus musculus [2] = experiment: Antiinflammatory activity in […] mouse assessed as inhibition of TPA-induced IL-1alpha mRNA expression in epidermis at 2 umol administered topically 30 mins prior to TPA challenge for twice weekly over 2 weeks measured 6 hrs post last TPA challenge by qRT-PCR analysis
Mus musculus [3] = experiment: Antiinflammatory activity in […] mouse assessed as inhibition of TPA-induced IL-23 mRNA expression in epidermis at 2 umol administered topically 30 mins prior to TPA challenge for twice weekly over 2 weeks measured 6 hrs post last TPA challenge by qRT-PCR analysis
Mus musculus [4] = experiment: Antiinflammatory activity in […] mouse assessed as inhibition of TPA-induced IL-6 mRNA expression in epidermis at 2 umol administered topically 30 mins prior to TPA challenge for twice weekly over 2 weeks measured 6 hrs post last TPA challenge by qRT-PCR analysis

C[C@H]1[C@H](C)CC[C@]2(C(=O)O)CC[C@]3(C)C(=CC[C@@H]4[C@@]5(C)C[C@@H](O)[C@@H](O)C(C)(C)[C@@H]5CC[C@]43C)[C@H]12
inhibition (Mus musculus [1]): Active
inhibition (Mus musculus [2]): Active
inhibition (Mus musculus [3]): Active
inhibition (Mus musculus [4]): Active

C[C@H]1[C@H](C)CC[C@]2(C(=O)O)CC[C@]3(C)C(=CC[C@@H]4[C@@]5(C)CC[C@H](O)C(C)(C)[C@@H]5CC[C@]43C)[C@H]12
inhibition (Mus musculus [1]): inactive
inhibition (Mus musculus [2]): inactive
inhibition (Mus musculus [3]): inactive
inhibition (Mus musculus [4]): inactive

CC1(C)CC[C@]2(C(=O)O)CC[C@]3(C)C(=CC[C@@H]4[C@@]5(C)CC[C@H](O)C(C)(C)[C@@H]5CC[C@]43C)[C@@H]2C1
inhibition (Mus musculus [1]): inactive
inhibition (Mus musculus [2]): inactive
inhibition (Mus musculus [3]): inactive
inhibition (Mus musculus [4]): inactive

CC1(C)CC[C@]2(C(=O)O)CC[C@]3(C)C(=CC[C@@H]4[C@@]5(C)C[C@@H](O)[C@@H](O)C(C)(C)[C@@H]5CC[C@]43C)[C@@H]2C1
inhibition (Mus musculus [1]): inactive
inhibition (Mus musculus [2]): inactive
inhibition (Mus musculus [3]): inactive
inhibition (Mus musculus [4]): inactive

CC1(C)CC[C@]2(C(=O)O)CC[C@]3(C)C(=CC[C@@H]4[C@@]5(C)C[C@@H](O)[C@H](O)C(C)(C)[C@@H]5CC[C@]43C)[C@@H]2C1
inhibition (Mus musculus [1]): Active
inhibition (Mus musculus [2]): Active
inhibition (Mus musculus [3]): Active
inhibition (Mus musculus [4]): Active

C[C@H]1[C@H](C)CC[C@]2(C(=O)O)CC[C@]3(C)C(=CC[C@@H]4[C@@]5(C)C[C@@H](O)[C@H](O)C(C)(C)[C@@H]5CC[C@]43C)[C@H]12
inhibition (Mus musculus [1]): Active
inhibition (Mus musculus [2]): Active
inhibition (Mus musculus [3]): Active
inhibition (Mus musculus [4]): Active
